Assay results reported in US20110053908A1, “AZETIDINE-DERIVED COMPOUNDS, PREPARATION METHOD THEREFOR AND THERAPEUTIC USE OF SAME” (SANOFI-AVENTIS, priority 2008, published 2011).
Where a name gives a salt, the structure may show the parent alone.

How the values were obtained:
[1] = target: T1, CB1-type cannabinoid receptor (Mus musculus, UniProt P47746); assay: inhibition of gastrointestinal transit induced by racemic CP55,940 in mice (charcoal bolus); format: in vivo; settings: 1 mg/kg po; male CD1 mice; CP55,940 0.15 mg/kg ip; progression of charcoal bolus
T1 construct: male CD1 mice receive the test product per os; from tissue; host or cells: whole animal, male CD1 mice
From the text: Thirty minutes later, the animals are sacrificed by euthanasia (CO2/O2) and the intestine is dissected. The progression of the charcoal bolus in the intestine is expressed as percentage of the total length of the intestine.
Consequently, the compounds of the invention of formula (I) are in vitro and in vivo CB1-type cannabinoid receptor antagonists. Some compounds are active in vivo with regard to both the hypothermia test and the transit test, and some compounds show activities split up between the hypothermia test and the transit test.

[2] = target: T2, human CB1 receptor (Homo sapiens, UniProt P21554); assay: intracellular cyclic AMP functional test in U373MG cells (HTRF cAMP Dynamic Kit); format: cell-based; settings: U373MG cells naturally expressing the human CB1 receptor
T2 construct: U373MG cells naturally expressing the human CB1 receptor; endogenous in cells; host or cells: U373MG cells
Method: The compounds according to the invention have formed the subject of pharmacological assays which make it possible to determine the activity with regard to human CB1-type cannabinoid receptors. The effectiveness of the compounds of formula (I) was determined in a functional test in which the activity of the CB1 cannabinoid receptors is measured (intracellular cyclic AMP test). The test for detecting intracellular cyclic AMP in U373MG cells naturally expressing the human CB1 receptor was carried out as described in the reference: Bouaboula et al., 1995, J. Biol. Chem. 270: 13973-13980. The HTRF cAMP Dynamic Kit from CisBio was used to quantify the intracellular cyclic AMP. In this test, the IC50 values are between 0.001 μM and 2 μM.

[3] = target: T3, CB cannabinoid receptor (Mus musculus, UniProt P47746); assay: hypothermia induced by CB agonist racemic CP55,940 in mice (rectal temperature); format: in vivo; settings: 3 mg/kg po; male CD1 mice; CP55,940 1.25 mg/kg i.p.; rectal temperature at 90 minutes
T3 construct: from tissue; host or cells: whole animal, male CD1 mice
Method: Other assays consisting in measuring the in vivo activity of the compounds of the invention were carried out. Their antagonist activity was shown by means of the model of […] induced by a CB cannabinoid receptor agonist (racemic CP55,940 ((1RS,3RS,4RS)-3-[2-hydroxy-4-(1,1-dimethylheptyl)phenyl]-4-(3-hydroxypropyl)cyclohexan-1-ol) at a dose of 1.25 mg/kg) in mice, according to the method described by Pertwee R. G. in Marijuana 84, Harvey D. J. eds., Oxford IRL
Press, 263-277 (1985). At time 0 min, the rectal temperature of male CD1 mice is measured before injection of the test product. At 30 minutes, a further measurement of the rectal temperature of the mice is taken and the racemic CP55,940 agonist ((1RS,3RS,4RS)-3-[2-hydroxy-4-(1,1-dimethylheptyl)phenyl]-4-(3-hydroxypropyl)cyclohexan-1-ol) (1.25 mg/kg i.p. in 10% cremophor) is administered. At 90 minutes, the rectal temperature is again measured. The results are expressed as % with respect to the control batched injected with CP 55,940 (minimum temperature) and to the carrier batch without treatment with CP55,940 (maximum temperature).

T2 sequence (P21554 whole entry): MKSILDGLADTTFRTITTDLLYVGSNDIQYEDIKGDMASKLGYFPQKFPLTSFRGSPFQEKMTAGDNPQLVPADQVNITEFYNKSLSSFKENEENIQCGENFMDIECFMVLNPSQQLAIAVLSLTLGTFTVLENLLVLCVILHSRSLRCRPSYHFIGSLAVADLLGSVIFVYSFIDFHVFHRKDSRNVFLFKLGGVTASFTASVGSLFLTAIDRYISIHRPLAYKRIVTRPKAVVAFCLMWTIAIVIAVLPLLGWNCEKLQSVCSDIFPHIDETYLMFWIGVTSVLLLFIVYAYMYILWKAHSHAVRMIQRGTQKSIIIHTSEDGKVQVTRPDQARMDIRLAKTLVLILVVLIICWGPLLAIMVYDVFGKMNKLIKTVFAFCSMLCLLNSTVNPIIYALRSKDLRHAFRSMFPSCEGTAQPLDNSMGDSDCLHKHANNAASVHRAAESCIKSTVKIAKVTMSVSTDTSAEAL
T1 sequence (P47746 whole entry): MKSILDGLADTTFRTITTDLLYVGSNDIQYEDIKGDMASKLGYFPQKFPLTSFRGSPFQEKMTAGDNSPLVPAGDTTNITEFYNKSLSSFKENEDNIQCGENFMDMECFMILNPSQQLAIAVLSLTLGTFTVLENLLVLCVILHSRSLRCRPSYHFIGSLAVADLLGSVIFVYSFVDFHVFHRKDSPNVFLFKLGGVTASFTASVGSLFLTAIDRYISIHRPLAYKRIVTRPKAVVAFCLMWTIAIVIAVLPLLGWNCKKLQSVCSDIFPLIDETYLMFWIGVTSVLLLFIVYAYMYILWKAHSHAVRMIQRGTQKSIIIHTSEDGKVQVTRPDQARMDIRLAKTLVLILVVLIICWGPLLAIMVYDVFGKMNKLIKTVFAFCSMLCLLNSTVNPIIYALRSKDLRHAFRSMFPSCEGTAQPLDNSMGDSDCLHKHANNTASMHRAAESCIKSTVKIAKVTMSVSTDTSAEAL
T3 sequence (P47746 whole entry): as above

Row | SMILES | percentage of inhibition [1] [%] | IC50 [2] [nM] | percentage of inhibition [3] [%] | melting point [°C]
1 | CS(=O)(=O)N(c1cc(C(=O)N[C@H]2CCC[C@@H]2O)cc(C(F)(F)F)c1)C1CN(C(c2ccc(Cl)cc2)c2ccc(Cl)cc2)C1 (racemic) [compound 41, 3-({1-[bis(4-chlorophenyl)methyl]azetidin-3-yl} (methanesulphonyl)amino)-N-((1SR,2SR)-2-hydroxycyclopent-1-yl)-5-(trifluoromethyl)benzamide] | 91 | – | – | –
2 | CS(=O)(=O)N(c1cc(F)cc(C(=O)N[C@H]2COC[C@@H]2O)c1)C1CN(C(c2ccc(Cl)cc2)c2ccc(Cl)cc2)C1 (racemic) [compound 47, 3-({1-[bis(4-chlorophenyl)methyl]azetidin-3-yl}(methanesulphonyl)amino)-5-fluoro-N-((3SR,4RS)-4-hydroxytetrahydrofuran-3-yl)benzamide] | – | 72 | – | –
3 | CC(CO)NC(=O)c1cc(F)cc(N(C2CN(C(c3ccc(Cl)cc3)c3ccc(Cl)cc3)C2)S(C)(=O)=O)c1 (single isomer, unassigned; (+)) [Compound No. 25, (+)-3-({1-[Bis(4-chlorophenyl)methyl]azetidin-3-yl}(methanesulphonyl)amino)-5-fluoro-N-(2-hydroxy-1-methylethyl)benzamide] | – | – | 18 | 148 to 150
4 | CC(CO)(CO)NC(=O)c1cc(F)cc(N(C2CN(C(c3ccc(Cl)cc3)c3ccc(Cl)cc3)C2)S(C)(=O)=O)c1 [Compound No. 27, 3-({1-[Bis(4-chlorophenyl)methyl]azetidin-3-yl}(methanesulphonyl)amino)-5-fluoro-N-(2-hydroxy-1-hydroxymethyl-1-methylethyl)benzamide] | 58 | – | – | 159 to 161
5 | CS(=O)(=O)N(c1cc(F)cc(C(=O)NCC(O)C(F)(F)F)c1)C1CN(C(c2ccc(Cl)cc2)c2ccc(Cl)cc2)C1 (centres unmarked) [compound 30, 3-({1-[bis(4-chlorophenyl)methyl]azetidin-3-yl}(methanesulphonyl)amino)-5-fluoro-N-(3,3,3-trifluoro-2-hydroxyprop-1-yl)benzamide] | – | 66 | – | –
6 | C[C@@H](CO)NC(=O)c1cc(N(C2CN(C(c3ccc(Cl)cc3)c3ccc(Cl)cc3)C2)S(C)(=O)=O)cc(C(F)(F)F)c1 [compound 36, (+)-3-({1-[bis(4-chlorophenyl)methyl]azetidin-3-yl}(methanesulphonyl)amino)-N—((S)-1-hydroxyprop-2-yl)-5-(trifluoromethyl)benzamide] | 85 | 16 | – | –

The next lines start with the values.

Row | percentage of inhibition [1] [%] | IC50 [2] [nM] | percentage of inhibition [3] [%] | melting point [°C] | SMILES
7 | – | 22 | – | – | CC1(C)OCC(CNC(=O)c2cccc(N(C3CN(C(c4ccc(Cl)cc4)c4ccc(Cl)cc4)C3)S(C)(=O)=O)c2)O1 (single isomer, unassigned; (-)) [Compound No. 5, (−)-3-({1-[Bis(4-chlorophenyl)methyl]azetidin-3-yl}(methanesulphonyl)amino)-N-(2,2-dimethyl-1,3-dioxolan-4-ylmethyl)benzamide]
8 | – | 61 | – | – | CS(=O)(=O)N(c1cccc(C(=O)NCCO)c1)C1CN(C(c2ccc(Cl)cc2)c2ccc(Cl)cc2)C1 [Compound No. 7, 3-({1-[Bis(4-chlorophenyl)methyl]azetidin-3-yl}(methanesulphonyl)amino)-N-(2-hydroxyethyl)benzamide hydrochloride (1:1)]
9 | 82 | 15 | 30 | 192 to 194 | C[C@@H](CO)NC(=O)c1cccc(N(C2CN(C(c3ccc(Cl)cc3)c3ccc(Cl)cc3)C2)S(C)(=O)=O)c1 [Compound No. 9, (+)-3-({1-[Bis(4-chlorophenyl)methyl]azetidin-3-yl}(methanesulphonyl)amino)-N-(2-hydroxy-1-methylethyl)benzamide]
10 | – | – | – | 192 to 194 | CS(=O)(=O)N(c1cccc(C(=O)NC(CO)CO)c1)C1CN(C(c2ccc(Cl)cc2)c2ccc(Cl)cc2)C1 [Compound No. 17, 3-({1-[Bis(4-chlorophenyl)methyl]azetidin-3-yl}(methanesulphonyl)amino)-N-(2-hydroxy-1-(hydroxymethyl)ethyl)benzamide]
11 | – | 20 | – | 144 to 146 | CS(=O)(=O)N(c1cc(F)cc(C(=O)NC(CO)CO)c1)C1CN(C(c2ccc(Cl)cc2)c2ccc(Cl)cc2)C1 [Compound No. 26, 3-({1-[Bis(4-chlorophenyl)methyl]azetidin-3-yl}(methanesulphonyl)amino)-5-fluoro-N-(2-hydroxy-1-(hydroxymethyl)ethyl)benzamide]
12 | – | – | – | 140 | CC(C)(O)CNC(=O)c1cccc(N(C2CN(C(c3ccc(Cl)cc3)c3ccc(Cl)cc3)C2)S(C)(=O)=O)c1 [compound 13, 3-({1-[bis(4-chlorophenyl)methyl]azetidin-3-yl}(methanesulphonyl)amino)-N-(2-hydroxy-2-methylprop-1-yl)benzamide]
13 | – | – | – | 162 | CC(C)(CO)NC(=O)c1cccc(N(C2CN(C(c3ccc(Cl)cc3)c3ccc(Cl)cc3)C2)S(C)(=O)=O)c1 [compound 16, 3-({1-[bis(4-chlorophenyl)methyl]azetidin-3-yl}(methanesulphonyl)amino)-N-(2-hydroxy-1,1-dimethylethyl)benzamide]
14 | – | 6 | – | 192 | CC(CO)(CO)NC(=O)c1cccc(N(C2CN(C(c3ccc(Cl)cc3)c3ccc(Cl)cc3)C2)S(C)(=O)=O)c1 [compound 18, 3-({1-[bis(4-chlorophenyl)methyl]azetidin-3-yl}(methanesulphonyl)amino)-N-[1,3-dihydroxy-2-methylprop-2-yl]benzamide]
15 | – | 38 | – | – | CS(=O)(=O)N(c1cccc(C(=O)NC2(CCO)CC2)c1)C1CN(C(c2ccc(Cl)cc2)c2ccc(Cl)cc2)C1 [compound 21, 3-({1-[bis(4-chlorophenyl)methyl]azetidin-3-yl}(methanesulphonyl)amino)-N-[1-(2-hydroxyethyl)cyclopropyl]benzamide]
